In BindingDB's records for doi:10.1021/jm000022w (Cor Therapeutics, 2000) one finds IC50 data, which are given here for eleven molecules.

Positions of bridges follow the written chain, without caps; N, C: chain ends. Non-standard residues stand in square brackets, D forms with d. Residues, ends and D or L forms follow the SMILES beside them. Phe(4-CH2NH2) = NCc1ccc(C[C@H](N)C(=O)O)cc1; Thz(5,5-Me2) = CC1(C)SCN[C@@H]1C(=O)O; NMeR = CN[C@@H](CCCNC(=N)N)C(=O)O

Test [1] is described as follows: inhibition of platelet aggregation in human platelet rich plasma.
Test [2] can be described thus: Inhibition of alpha IIb beta-3 integrin mediated platelet aggregation.
Assay in test [3]: as above
The source holds these as a separate data set.

The nature of test [4]: Inhibition of human platelet aggregation.
A short description of test [5]: Inhibition of canine platelet aggregation.
The nature of test [6]: Inhibition of human platelet aggregation in platelet rich plasma.
A short description of test [7]: Inhibition of human gel filtered platelet aggregation mediated by 10 uM ADP.
Test [8] is described as follows: Inhibition of ADP-induced platelet aggregation.
Test [9] can be described thus: Inhibition of human gel filtered platelet aggregation induced by ADP.
A short description of test [10]: Inhibition of collagen-induced platelet aggregation.
The nature of test [11]: Inhibition of ADP-induced platelet aggregation. The source holds these as a separate data set.
Test [12] can be described thus: Inhibition canine platelet aggregation in platelet rich plasma (PRP).
Test [13] can be described thus: Inhibition of human platelet aggregation in platelet rich plasma (PRP).

`CCOC(=O)COC1CCN(C(=O)[C@H](C)NC(=O)c2ccc(C(=N)NO)cc2)CC1` [((S)-1-{2-[4-(N-Hydroxycarbamimidoyl)-benzoylamino]-propionyl}-piperidin-4-yloxy)-acetic acid ethyl ester]: the IC50 in [1] came out at 38 nM. Molecule `C[C@H](CC(=O)O)NC(=O)CN1CCC[C@@H](CCC2CCNCC2)C1=O` [3-{2-[2-Oxo-3-(2-piperidin-4-yl-ethyl)-piperidin-1-yl]-acetylamino}-butyric acid (L-734217)] showed an IC50 in test [2] of 23 nM. In turn, `CCOC(=O)CC1CCN(C(=O)C(C)(C)[C@@H](CC)NC(=O)c2ccc(C(=N)N3CCSC3)cc2F)CC1` [(1-{3-[2-Fluoro-4-(imino-thiazolidin-3-yl-methyl)-benzoylamino]-2,2-dimethyl-pentanoyl}-piperidin-4-yl)-acetic acid ethyl ester(NSL-96184)] gave an IC50 in test [3] of 45 nM. On to `CC(=O)N[C@H]1CSSC[C@@H](C(N)=O)NC(=O)[C@H](CC(=O)O)NC(=O)CNC(=O)[C@H](CCCNC(=N)N)N(C)C1=O` [[16-Acetylamino-4-carbamoyl-13-(3-guanidino-propyl)-14-methyl-6,9,12,15-tetraoxo-1,2-dithia-5,8,11,14-tetraaza-cycloheptadec-7-yl]-acetic acid (SK&F 106760)] (Ac-C[NMeR]GDC-NH2; disulfide 1-5), for which the IC50 in test [4] was 230 nM; in [5], 90 nM. For `O=C(NC[C@H](NS(=O)(=O)c1ccccc1)C(=O)O)c1cnc(N2CCN(C3CCNCC3)CC2)s1` [2-Benzenesulfonylamino-3-{[2-(4-piperidin-4-yl-piperazin-1-yl)-thiazole-5-carbonyl]-amino}-propionic acid (UR-12947)], the IC50 in test [6] came out at 3.5 nM. `CC(=O)N[C@H]1CSSC[C@@H](C(=O)O)NC(=O)[C@H](CC(=O)O)NC(=O)CNC(=O)[C@H](Cc2ccc(CN)cc2)NC(=O)[C@H]2N(CSC2(C)C)C(=O)[C@H](CC(N)=O)NC1=O` [8-Acetylamino-22-(4-aminomethyl-benzyl)-5-carbamoylmethyl-16-carboxymethyl-1,1-dimethyl-4,7,15,18,21,24-hexaoxo-icosahydro-2,10,11-trithia-3a,6,14,17,20,23-hexaaza-cyclopentacyclotricosene-13-carboxylic acid (MK-0852)] (Ac-CN[Thz(5,5-Me2)][Phe(4-CH2NH2)]GDC-OH; disulfide 1-7): it took 26 nM to reach half-maximal inhibition in test [7] (IC50). Take `CCCCOC(=O)N[C@@H](CNC(=O)C1CC(OCc2ccc(C(=N)N)cc2)=NO1)C(=O)OC` (stereo partly drawn) [2-Butoxycarbonylamino-3-{[3-(4-carbamimidoyl-benzyloxy)-4,5-dihydro-isoxazole-5-carbonyl]-amino}-propionic acid methyl ester(XU 065)]: it took 50 nM to reach half-maximal inhibition in test [8] (IC50). Turning to `CCOC(=O)CCNC(=O)N[C@H]1CCN(c2ccc(C(=N)N)cc2)C1=O` [SC-57099B], the figures for the IC50 in [9] and in test [10] were 80 nM and 130 nM, respectively. `N=C(N)c1ccc(C(=O)Nc2ccc3c(c2)C(=O)N(CCC(=O)O)Cc2nnnn2-3)cc1` [3-[8-(4-Carbamimidoyl-benzoylamino)-6-oxo-4H,6H-1,2,3,5,10b-pentaaza-benzo[e]azulen-5-yl]-propionic acid(G7453)] registered an IC50 in [11] of 54 nM. Regarding `N=C(N)c1ccc(CCCCC(=O)N[C@@H](CC(=O)O)C(=O)N[C@@H](Cc2ccccc2)C(=O)O)cc1` [SC-52012], inhibition in test [12] was half-maximal at 72 nM (IC50). Molecule `O=C(CCCC1CCNCC1)NCC(=O)N[C@H](CCc1c[nH]c2ccccc12)C(=O)O` [L-703014] showed an IC50 in [13] of 94 nM.
